Test results from ChEMBL document CHEMBL4417636, “Small molecule inhibitors of pendrin ion exchange and pharmaceutical compositions” (2017).
Activity calls are given as the source filed them. No cut-off for these calls is given here.

Experiments:
[1] = target: T1, Band 3 anion transport protein (Mus musculus) (UniProt P04919); assay: Inhibition of mouse Slc4a1 expressed in COS7 co-expressing EYFP-HIF assessed as effect on SCN(-) gradient at 25 uM by YFP-based fluorescence quenching assay
T1 sequence (whole entry): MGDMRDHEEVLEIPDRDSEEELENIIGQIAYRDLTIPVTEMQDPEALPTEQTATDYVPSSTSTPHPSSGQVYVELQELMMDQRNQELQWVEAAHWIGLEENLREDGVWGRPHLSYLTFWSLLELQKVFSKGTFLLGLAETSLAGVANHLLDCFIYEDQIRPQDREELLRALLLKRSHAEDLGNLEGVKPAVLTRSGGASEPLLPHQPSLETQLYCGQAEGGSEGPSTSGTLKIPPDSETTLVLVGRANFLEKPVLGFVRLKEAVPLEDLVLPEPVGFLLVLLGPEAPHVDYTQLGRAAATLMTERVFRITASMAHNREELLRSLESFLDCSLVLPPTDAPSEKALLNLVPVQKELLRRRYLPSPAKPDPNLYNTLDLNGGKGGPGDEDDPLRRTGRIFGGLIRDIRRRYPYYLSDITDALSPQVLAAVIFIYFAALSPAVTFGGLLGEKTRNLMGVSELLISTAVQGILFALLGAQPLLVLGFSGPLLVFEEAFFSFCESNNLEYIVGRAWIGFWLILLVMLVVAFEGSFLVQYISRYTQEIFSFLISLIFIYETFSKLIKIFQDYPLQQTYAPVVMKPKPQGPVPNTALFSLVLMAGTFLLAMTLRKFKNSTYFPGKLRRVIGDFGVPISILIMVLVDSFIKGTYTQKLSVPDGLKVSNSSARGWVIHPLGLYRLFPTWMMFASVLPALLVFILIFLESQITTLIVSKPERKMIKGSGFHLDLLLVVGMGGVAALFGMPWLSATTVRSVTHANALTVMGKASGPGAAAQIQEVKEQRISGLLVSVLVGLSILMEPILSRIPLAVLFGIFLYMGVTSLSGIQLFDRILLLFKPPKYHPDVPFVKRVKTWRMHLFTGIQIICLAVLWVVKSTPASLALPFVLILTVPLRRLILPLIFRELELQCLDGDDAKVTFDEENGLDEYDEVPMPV

Mus musculus [2] = assay: Potentiation of 20 mg/kg, ip furosemide-induced acute diuretic action in CD1 mouse assessed as effect on urinary K+ excretion at 10 mg/kg, ip measured at 3 hrs relative to control; assay type: functional, organism-based
Pendrin = target: T2, Pendrin (Homo sapiens, UniProt O43511); assay: Inhibition of human pendrin expressed in FRT cells co-expressing EYFP-HIF assessed as reduction in pendrin-mediated C17F exchange incubated for 10 mins by pH-sensitive fluorescent probe BCECF-AM based fluorescence assay relative to control; assay type: cell-based
T2 sequence (O43511 whole entry): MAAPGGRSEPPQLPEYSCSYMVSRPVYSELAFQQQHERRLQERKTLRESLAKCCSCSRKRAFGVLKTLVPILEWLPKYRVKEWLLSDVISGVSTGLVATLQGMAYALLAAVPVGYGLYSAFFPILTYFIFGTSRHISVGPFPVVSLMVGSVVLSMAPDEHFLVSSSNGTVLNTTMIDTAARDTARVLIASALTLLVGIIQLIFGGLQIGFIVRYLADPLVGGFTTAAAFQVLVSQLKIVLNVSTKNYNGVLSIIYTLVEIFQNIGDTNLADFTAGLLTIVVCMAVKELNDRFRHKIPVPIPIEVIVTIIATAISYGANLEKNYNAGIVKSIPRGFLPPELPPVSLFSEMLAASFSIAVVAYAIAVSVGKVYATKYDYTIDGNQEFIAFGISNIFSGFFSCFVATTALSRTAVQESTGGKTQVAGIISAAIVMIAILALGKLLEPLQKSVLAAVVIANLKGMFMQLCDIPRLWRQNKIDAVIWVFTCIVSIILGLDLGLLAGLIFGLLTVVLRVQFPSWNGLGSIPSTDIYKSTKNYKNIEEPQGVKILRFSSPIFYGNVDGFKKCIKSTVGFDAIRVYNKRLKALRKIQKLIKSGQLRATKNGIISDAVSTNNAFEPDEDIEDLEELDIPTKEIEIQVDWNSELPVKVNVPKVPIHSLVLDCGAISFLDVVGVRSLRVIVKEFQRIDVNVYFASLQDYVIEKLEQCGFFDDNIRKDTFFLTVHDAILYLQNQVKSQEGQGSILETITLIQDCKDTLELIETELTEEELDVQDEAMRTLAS

[3] = target: T3, Chloride anion exchanger (Mus musculus) (UniProt Q9WVC8); assay: Inhibition of myc-tagged mouse Slc26a3 expressed in COS7 co-expressing EYFP-HIF assessed as effect on SCN(-) gradient at 25 uM by YFP-based fluorescence quenching assay
T3 sequence (whole entry): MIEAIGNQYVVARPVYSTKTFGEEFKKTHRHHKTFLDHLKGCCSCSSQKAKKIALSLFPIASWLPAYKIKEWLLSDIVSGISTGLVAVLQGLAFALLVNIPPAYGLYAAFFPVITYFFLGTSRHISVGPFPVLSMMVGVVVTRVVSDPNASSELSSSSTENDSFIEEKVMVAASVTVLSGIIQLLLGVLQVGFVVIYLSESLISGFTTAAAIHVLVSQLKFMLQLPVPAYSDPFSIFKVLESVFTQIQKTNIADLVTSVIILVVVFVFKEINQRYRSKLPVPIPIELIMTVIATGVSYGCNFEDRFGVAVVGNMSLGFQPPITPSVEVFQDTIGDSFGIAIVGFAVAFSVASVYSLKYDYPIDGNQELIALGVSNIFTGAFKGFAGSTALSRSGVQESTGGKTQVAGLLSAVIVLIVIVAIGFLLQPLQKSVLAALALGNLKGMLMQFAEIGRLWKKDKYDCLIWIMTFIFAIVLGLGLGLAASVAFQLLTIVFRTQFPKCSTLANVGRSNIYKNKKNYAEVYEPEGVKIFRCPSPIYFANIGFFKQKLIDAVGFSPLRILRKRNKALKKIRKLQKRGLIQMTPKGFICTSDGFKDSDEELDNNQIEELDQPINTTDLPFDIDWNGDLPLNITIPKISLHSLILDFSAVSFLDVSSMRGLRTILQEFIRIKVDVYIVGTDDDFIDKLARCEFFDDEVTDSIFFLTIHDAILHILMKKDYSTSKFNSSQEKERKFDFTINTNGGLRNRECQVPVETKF

Mus musculus [4] = assay: Potentiation of 20 mg/kg, ip furosemide-induced acute diuretic action in CD1 mouse assessed as effect on urine pH at 10 mg/kg, ip relative to control; assay type: functional, organism-based
Pendrin (Homo sapiens) [5] = target: T4, Pendrin (Homo sapiens) (UniProt O43511); assay: Inhibition of pendrin in IL13-stimulated human CFBE assessed as reduction in gluconate gradient-induced intracellular alkalization at 25 uM; assay type: cell-based
T4 sequence (whole entry): T2 sequence (O43511 whole entry)

Pendrin (Homo sapiens) [6] = target: T4, Pendrin (Homo sapiens); assay: Inhibition of pendrin in IL13-stimulated human bronchial epithelial cells assessed as reduction in gluconate gradient-induced intracellular alkalization at 25 uM; assay type: cell-based
Pendrin (Homo sapiens) [7] = target: T4, Pendrin (Homo sapiens); assay: Inhibition of pendrin in human bronchial epithelial cells assessed as increase in airway surface liquid depth at 25 uM by rhodamine B-dextran fluorescence based confocal microscopy (reference value: -16 um)

Row | inhibition [1] | IC50 (Pendrin) | inhibition [3] | inhibition (Pendrin (Homo sapiens) [5]) | inhibition (Pendrin (Homo sapiens) [6]) | Activity (Pendrin (Homo sapiens) [7]) | SMILES | Activity (Mus musculus [2]) | Activity (Mus musculus [4])
1 | inactive | 9 µM | inactive | – | – | – | Cc1n[nH]c(-c2cc(S(=O)(=O)NC3CCCc4ccccc43)c(C)s2)c1C (stereo not drawn) | inactive | inactive
2 | – | – | – | Active | Active | -8 µm | Cn1nc(COc2cccc(F)c2)c2c1CCN(C(=O)Nc1ccc(Cl)cc1)C2 | – | –
